Measured values published in ChEMBL document CHEMBL1201862, “PubChem BioAssay data set” (2004).
Active and inactive are the calls of the source. Rule as the data show it: active = IC50 of 10 µM or less and inactive = more.

Experiments:
Type in all cases: functional
[1] = target: T1, Melanin-concentrating hormone receptor 1 (Homo sapiens, UniProt Q99705); assay: Late-stage fluorescence-based counterscreen for antagonists of the G-protein coupled receptor 7 (GPR7): cell-based dose response assay to identify antagonists of the melanin-concentrating hormone receptor 1 (MCHR1) Set 6.
T1 sequence (Q99705 whole entry): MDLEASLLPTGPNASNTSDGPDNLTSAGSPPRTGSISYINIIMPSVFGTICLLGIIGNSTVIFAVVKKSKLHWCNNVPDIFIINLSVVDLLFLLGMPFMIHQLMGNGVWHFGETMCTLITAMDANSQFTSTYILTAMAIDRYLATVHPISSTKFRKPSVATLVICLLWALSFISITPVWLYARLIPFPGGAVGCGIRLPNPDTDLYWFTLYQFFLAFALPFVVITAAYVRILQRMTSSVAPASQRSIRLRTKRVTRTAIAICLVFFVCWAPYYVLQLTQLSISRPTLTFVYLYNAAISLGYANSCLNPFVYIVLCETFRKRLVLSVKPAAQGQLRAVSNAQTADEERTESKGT

[2] = target: T2, Neuropeptides B/W receptor type 1 (Homo sapiens, UniProt P48145); assay: human NPBW1 receptor blockade, IC50 – cell-based, fluorescence, dose response, set 6, late-stage follow-up (AID 588583)
T2 sequence (P48145 whole entry): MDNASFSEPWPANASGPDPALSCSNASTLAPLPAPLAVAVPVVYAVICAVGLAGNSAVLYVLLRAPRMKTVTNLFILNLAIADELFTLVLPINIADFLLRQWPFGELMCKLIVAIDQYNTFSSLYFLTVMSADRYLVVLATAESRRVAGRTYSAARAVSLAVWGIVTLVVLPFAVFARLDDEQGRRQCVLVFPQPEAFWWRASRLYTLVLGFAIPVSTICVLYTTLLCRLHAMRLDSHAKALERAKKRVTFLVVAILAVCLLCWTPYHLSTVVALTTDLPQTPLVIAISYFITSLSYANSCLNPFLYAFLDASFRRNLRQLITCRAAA

[3] = target: T1, Melanin-concentrating hormone receptor 1; assay: Late-stage fluorescence-based counterscreen for antagonists of the G-protein coupled receptor 7 (GPR7): cell-based dose response assay to identify antagonists of the melanin-concentrating hormone receptor 1 (MCHR1) Set 5.
[4] = target: T2, Neuropeptides B/W receptor type 1; assay: human NPBW1 receptor blockade, IC50 – cell-based, fluorescence, dose response, set 5, late-stage follow-up (AID 588566)

Row | SMILES | IC50 [1] | IC50 [2] | IC50 [3] | IC50 [4]
1 | CCc1c(C(C#N)c2ccccc2)cnn(Cc2cccc3ccccc23)c1=O (centres undefined) | 4.72 µM (active) | 4.72 µM (active) |  | 
2 | COc1ccc(S(=O)(=O)c2c(Cl)cnn(Cc3cccc4ccccc34)c2=O)cc1 |  |  | 4.44 µM (active) | ~6.06 µM (active)
